In BindingDB's records for aid1799745 (Csar, 2012):

Biological target: T1, UDP-3-O-acyl-N-acetylglucosamine deacetylase (Aquifex aeolicus (strain VF5), UniProt O67648)
T1 sequence (O67648 whole entry): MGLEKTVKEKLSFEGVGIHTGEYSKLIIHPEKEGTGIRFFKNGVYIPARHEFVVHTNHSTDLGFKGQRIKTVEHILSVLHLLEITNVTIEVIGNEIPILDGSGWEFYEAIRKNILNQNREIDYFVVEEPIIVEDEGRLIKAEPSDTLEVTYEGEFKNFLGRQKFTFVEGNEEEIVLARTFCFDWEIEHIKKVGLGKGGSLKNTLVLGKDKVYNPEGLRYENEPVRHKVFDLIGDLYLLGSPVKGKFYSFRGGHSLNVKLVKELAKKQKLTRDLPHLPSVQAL
Assay: Thermofluor
Details: pH 7; 25 °C

Compound	Kd [µM]
CC1(CNC(=O)c2ccc(-c3ccccc3)cc2)NC(=O)NC1=O (stereo unspecified) [CS21]	> 100
CC1(CNC(=O)c2ccc(C#Cc3ccccc3)cc2)NC(=O)NC1=O (stereo unspecified) [CS22]	93.4
CC1(CNC(=O)c2ccc(-c3ccc(Br)cc3)cc2)NC(=O)NC1=O (stereo unspecified) [CS23]	> 100
CC1(CNC(=O)c2ccc(C#CC#Cc3ccccc3)cc2)NC(=O)NC1=O (stereo unspecified) [CS243]	63.9
NC[C@H](NC(=O)c1ccc(-c2ccccc2)cc1)C(=O)NO [CS249]	0.393
NC[C@H](NC(=O)c1ccc(-c2ccc(Br)cc2)cc1)C(=O)NO [CS250]	0.19
NC[C@H](NC(=O)c1ccc(C#CC#Cc2ccccc2)cc1)C(=O)NO [CS252]	0.059
C[C@@H](O)[C@H](NC(=O)c1ccc(-c2ccccc2)cc1)C(=O)NCC1(C)NC(=O)NC1=O (stereo partly specified) [CS253]	> 100
C[C@@H](O)[C@H](NC(=O)c1ccc(C#Cc2ccccc2)cc1)C(=O)NCC1(C)NC(=O)NC1=O (stereo partly specified) [CS254]	> 100
C[C@@H](O)[C@H](NC(=O)c1ccc(C#CC#Cc2ccccc2)cc1)C(=O)NCC1(C)NC(=O)NC1=O (stereo partly specified) [CS255]	> 100
C[C@@H](O)[C@H](NC(=O)c1ccc(-c2ccc(Br)cc2)cc1)C(=O)NCC1(C)NC(=O)NC1=O (stereo partly specified) [CS256]	> 100
C[C@@H](O)[C@H](NC(=O)c1ccc(C#CC#Cc2ccccc2)cc1)C(=O)NO [CS257]	0.008
C[C@@H](O)[C@H](NC(=O)c1ccc(-c2ccc(Br)cc2)cc1)C(=O)NO [CS258]	0.033
C[C@@H](O)[C@H](NC(=O)c1ccc(C#Cc2ccccc2)cc1)C(=O)NO [CS259]	0.02
C[C@@H](O)[C@H](NC(=O)c1ccc(-c2ccccc2)cc1)C(=O)NO [CS263]	0.075
CC1(CNC(=O)[C@H](CN)NC(=O)c2ccc(-c3ccccc3)cc2)NC(=O)NC1=O (stereo partly specified) [CS264]	> 100

Compound	Kd [µM]
CC1(CNC(=O)[C@H](CN)NC(=O)c2ccc(C#CC#Cc3ccccc3)cc2)NC(=O)NC1=O (stereo partly specified) [CS265]	> 100
CC1(CNC(=O)[C@H](CN)NC(=O)c2ccc(C#Cc3ccccc3)cc2)NC(=O)NC1=O (stereo partly specified) [CS266]	> 100
CC1(CNC(=O)[C@H](CN)NC(=O)c2ccc(-c3ccc(Br)cc3)cc2)NC(=O)NC1=O (stereo partly specified) [CS267]	> 100
O=C(NO)[C@H]1COC(c2ccc([N+](=O)[O-])cc2)=N1 [CS268]	7.25
O=C(NO)[C@H]1COC(c2ccc(OCc3cccc(F)c3)c(OC(F)(F)F)c2)=N1 [CS269]	> 100
O=C(NO)[C@H]1COC(c2ccc(OC(F)(F)F)c(Cl)c2)=N1 [CS270]	3.8
O=C(NO)[C@H]1COC(c2ccc(F)c(C(F)(F)F)c2)=N1 [CS271]	1.03
O=C(NO)[C@H]1COC(c2cc3cc(F)ccc3[nH]2)=N1 [CS272]	2.5
CN(C)c1ccc(C2=N[C@@H](C(=O)NO)CO2)cc1 [CS273]	> 100
CCCc1ccc(-c2ccc(C3=N[C@@H](C(=O)NO)CO3)cc2)cc1 [CS274]	15.6
O=C(NO)c1csc(-c2ccc(OC(F)(F)F)c(Cl)c2)n1 [CS275]	21.5
O=C(NO)C1=C[SiH2]C(c2ccc(F)cc2)=N1 (stereo unspecified) [CS276]	28.5
O=C(NO)c1csc(-c2ccc(F)c(C(F)(F)F)c2)n1 [CS277]	2.91
CN(C)c1ccc(-c2nc(C(=O)NO)cs2)cc1 [CS278]	28.2
O=C(NO)[C@H]1COC(c2ccc(F)cc2)=N1 [CS279]	11.1
